Measured values taken from ChEMBL document CHEMBL6177997, “Design, Synthesis, and Evaluation of Novel ROCK Inhibitors for Glaucoma Treatment: Insights into In Vitro and In Vivo Efficacy and Safety” (J Med Chem, 2025).
The source made the active and inactive calls. No cut-off for these calls is given here.

Target: Rho-associated protein kinase 2 (Homo sapiens, UniProt O75116)
Test: Inhibition of ROCK2 (unknown origin) incubated for 40 mins in presence of ATP by ADP-glo assay
Conditions: not given

Sequence of Rho-associated protein kinase 2 (O75116 whole entry): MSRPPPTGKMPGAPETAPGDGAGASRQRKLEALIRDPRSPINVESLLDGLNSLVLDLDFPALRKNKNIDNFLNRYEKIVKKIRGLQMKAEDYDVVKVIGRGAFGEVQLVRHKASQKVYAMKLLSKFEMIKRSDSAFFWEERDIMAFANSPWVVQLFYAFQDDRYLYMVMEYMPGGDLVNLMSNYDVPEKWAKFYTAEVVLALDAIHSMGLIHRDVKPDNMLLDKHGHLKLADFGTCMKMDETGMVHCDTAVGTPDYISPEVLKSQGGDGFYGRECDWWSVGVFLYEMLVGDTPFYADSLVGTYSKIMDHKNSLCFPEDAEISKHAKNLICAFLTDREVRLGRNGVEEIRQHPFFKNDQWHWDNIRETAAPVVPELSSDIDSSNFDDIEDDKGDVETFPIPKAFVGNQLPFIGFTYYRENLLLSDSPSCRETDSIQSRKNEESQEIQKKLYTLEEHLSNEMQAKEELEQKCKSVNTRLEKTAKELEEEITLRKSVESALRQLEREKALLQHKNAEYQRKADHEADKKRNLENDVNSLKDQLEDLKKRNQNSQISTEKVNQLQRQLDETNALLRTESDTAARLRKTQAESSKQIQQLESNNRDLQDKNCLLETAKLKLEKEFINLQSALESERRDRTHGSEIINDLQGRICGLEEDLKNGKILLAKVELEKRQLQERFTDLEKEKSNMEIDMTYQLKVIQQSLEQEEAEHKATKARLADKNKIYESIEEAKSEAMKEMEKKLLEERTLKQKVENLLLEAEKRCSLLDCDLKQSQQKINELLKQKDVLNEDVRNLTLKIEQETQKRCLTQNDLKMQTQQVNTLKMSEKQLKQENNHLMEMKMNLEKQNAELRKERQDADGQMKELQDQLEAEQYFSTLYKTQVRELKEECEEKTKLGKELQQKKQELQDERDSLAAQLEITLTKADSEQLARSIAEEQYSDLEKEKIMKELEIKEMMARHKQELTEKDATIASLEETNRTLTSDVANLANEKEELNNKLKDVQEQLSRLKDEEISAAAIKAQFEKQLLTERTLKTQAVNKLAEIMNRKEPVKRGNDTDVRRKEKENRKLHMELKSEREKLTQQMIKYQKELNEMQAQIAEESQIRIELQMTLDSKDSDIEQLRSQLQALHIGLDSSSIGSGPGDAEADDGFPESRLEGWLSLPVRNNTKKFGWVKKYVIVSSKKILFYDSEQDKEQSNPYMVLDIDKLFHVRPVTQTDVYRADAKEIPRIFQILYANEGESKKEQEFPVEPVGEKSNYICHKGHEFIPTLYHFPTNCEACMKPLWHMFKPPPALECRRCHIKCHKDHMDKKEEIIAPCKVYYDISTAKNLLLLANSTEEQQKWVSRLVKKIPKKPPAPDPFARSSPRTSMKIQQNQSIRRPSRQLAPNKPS

IC50 | Structure (SMILES)
980 nM | CC(=O)N1CCC(c2cc(-c3ccnc4[nH]ccc34)[nH]n2)CC1
> 5000 nM | Cc1cccc(CN2CCC(c3cc(-c4ccnc5[nH]ccc45)[nH]n3)CC2)c1
150 nM | COc1ccc(CN2CCC(c3cc(-c4ccnc5[nH]ccc45)[nH]n3)CC2)cc1OC
295 nM | Fc1ccc(CN2CCC(c3cc(-c4ccnc5[nH]ccc45)[nH]n3)CC2)cc1F
1070 nM | O=S(=O)(C1CC1)N1CCC(c2cc(-c3ccnc4[nH]ccc34)[nH]n2)CC1
369 nM | O=C(c1ccc(Cl)cc1)N1CCC(c2cc(-c3ccnc4[nH]ccc34)[nH]n2)CC1
1060 nM | c1ccc(Oc2cccc(CN3CCC(c4cc(-c5ccnc6[nH]ccc56)[nH]n4)CC3)c2)cc1
907 nM | O=C(c1ccc(F)c(F)c1)N1CCC(c2cc(-c3ccnc4[nH]ccc34)[nH]n2)CC1
> 5000 nM | Cc1ccc(CN2CCC(c3cc(-c4ccnc5[nH]ccc45)[nH]n3)CC2)cc1
158 nM | CCS(=O)(=O)N1CCC(c2cc(-c3ccnc4[nH]ccc34)[nH]n2)CC1
401 nM | COC(=O)c1ccc(C(=O)N2CCC(c3cc(-c4ccnc5[nH]ccc45)[nH]n3)CC2)cc1
486 nM | COc1ccc(CC(=O)N2CCC(c3cc(-c4ccnc5[nH]ccc45)[nH]n3)CC2)cc1
542 nM | O=C(c1cccc(F)c1)N1CCC(c2cc(-c3ccnc4[nH]ccc34)[nH]n2)CC1
699 nM | O=C(c1ccc([N+](=O)[O-])cc1)N1CCC(c2cc(-c3ccnc4[nH]ccc34)[nH]n2)CC1
787 nM | O=C(CC1CC1)N1CCC(c2cc(-c3ccnc4[nH]ccc34)[nH]n2)CC1
577 nM | COc1cccc(C(=O)N2CCC(c3cc(-c4ccnc5[nH]ccc45)[nH]n3)CC2)c1
130 nM | N#CCN1CCC(c2cc(-c3ccnc4[nH]ccc34)[nH]n2)CC1
1450 nM | COc1cc(C(=O)N2CCC(c3cc(-c4ccnc5[nH]ccc45)[nH]n3)CC2)cc(OC)c1OC
172 nM | c1ccc(CN2CCC(c3cc(-c4ccnc5[nH]ccc45)[nH]n3)CC2)cc1

Target: Rho-associated protein kinase 1 (Homo sapiens, UniProt Q13464)
Test: Inhibition of ROCK1 (unknown origin) incubated for 40 mins in presence of ATP by ADP-glo assay
Conditions: not given

Sequence of Rho-associated protein kinase 1 (Q13464 whole entry): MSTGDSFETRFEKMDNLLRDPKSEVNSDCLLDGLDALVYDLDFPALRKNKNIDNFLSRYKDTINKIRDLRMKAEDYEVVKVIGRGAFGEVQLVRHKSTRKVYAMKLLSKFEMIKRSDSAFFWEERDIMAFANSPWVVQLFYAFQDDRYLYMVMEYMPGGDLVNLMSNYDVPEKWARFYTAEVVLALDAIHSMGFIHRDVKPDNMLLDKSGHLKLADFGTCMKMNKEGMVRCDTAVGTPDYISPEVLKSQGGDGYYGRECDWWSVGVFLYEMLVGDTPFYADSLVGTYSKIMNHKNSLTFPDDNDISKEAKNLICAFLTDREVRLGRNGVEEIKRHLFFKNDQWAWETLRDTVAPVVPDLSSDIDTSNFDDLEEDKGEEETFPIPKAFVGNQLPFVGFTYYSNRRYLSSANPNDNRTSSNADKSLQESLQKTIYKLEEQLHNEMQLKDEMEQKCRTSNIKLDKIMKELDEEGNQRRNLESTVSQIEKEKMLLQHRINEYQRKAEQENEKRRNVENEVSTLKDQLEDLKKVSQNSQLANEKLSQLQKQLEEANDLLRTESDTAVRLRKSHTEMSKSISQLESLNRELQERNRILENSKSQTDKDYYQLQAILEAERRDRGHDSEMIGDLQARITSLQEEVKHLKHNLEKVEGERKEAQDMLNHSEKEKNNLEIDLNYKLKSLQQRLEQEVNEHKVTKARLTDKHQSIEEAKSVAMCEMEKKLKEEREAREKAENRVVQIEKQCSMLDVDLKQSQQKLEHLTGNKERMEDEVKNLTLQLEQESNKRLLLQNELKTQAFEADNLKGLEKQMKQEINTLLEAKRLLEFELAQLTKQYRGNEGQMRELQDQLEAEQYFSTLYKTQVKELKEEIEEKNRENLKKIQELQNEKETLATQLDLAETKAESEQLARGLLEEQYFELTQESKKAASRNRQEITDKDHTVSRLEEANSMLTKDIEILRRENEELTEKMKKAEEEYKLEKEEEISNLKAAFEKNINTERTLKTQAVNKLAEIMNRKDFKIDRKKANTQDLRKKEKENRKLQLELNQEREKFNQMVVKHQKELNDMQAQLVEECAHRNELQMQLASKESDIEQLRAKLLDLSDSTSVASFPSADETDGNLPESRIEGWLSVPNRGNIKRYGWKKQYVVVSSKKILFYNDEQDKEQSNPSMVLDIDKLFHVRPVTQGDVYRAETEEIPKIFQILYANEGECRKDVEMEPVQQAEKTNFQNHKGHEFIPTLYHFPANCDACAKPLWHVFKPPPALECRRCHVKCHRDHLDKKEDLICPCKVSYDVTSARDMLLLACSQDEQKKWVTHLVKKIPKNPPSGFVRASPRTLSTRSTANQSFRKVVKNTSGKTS

IC50 | Structure (SMILES)
1220 nM | CC(=O)N1CCC(c2cc(-c3ccnc4[nH]ccc34)[nH]n2)CC1
> 5000 nM | Cc1cccc(CN2CCC(c3cc(-c4ccnc5[nH]ccc45)[nH]n3)CC2)c1
241 nM | COc1ccc(CN2CCC(c3cc(-c4ccnc5[nH]ccc45)[nH]n3)CC2)cc1OC
425 nM | Fc1ccc(CN2CCC(c3cc(-c4ccnc5[nH]ccc45)[nH]n3)CC2)cc1F
489 nM | O=S(=O)(C1CC1)N1CCC(c2cc(-c3ccnc4[nH]ccc34)[nH]n2)CC1
899 nM | O=C(c1ccc(Cl)cc1)N1CCC(c2cc(-c3ccnc4[nH]ccc34)[nH]n2)CC1
1340 nM | c1ccc(Oc2cccc(CN3CCC(c4cc(-c5ccnc6[nH]ccc56)[nH]n4)CC3)c2)cc1
699 nM | O=C(c1ccc(F)c(F)c1)N1CCC(c2cc(-c3ccnc4[nH]ccc34)[nH]n2)CC1
> 5000 nM | Cc1ccc(CN2CCC(c3cc(-c4ccnc5[nH]ccc45)[nH]n3)CC2)cc1
286 nM | CCS(=O)(=O)N1CCC(c2cc(-c3ccnc4[nH]ccc34)[nH]n2)CC1
777 nM | COC(=O)c1ccc(C(=O)N2CCC(c3cc(-c4ccnc5[nH]ccc45)[nH]n3)CC2)cc1
813 nM | COc1ccc(CC(=O)N2CCC(c3cc(-c4ccnc5[nH]ccc45)[nH]n3)CC2)cc1
842 nM | O=C(c1cccc(F)c1)N1CCC(c2cc(-c3ccnc4[nH]ccc34)[nH]n2)CC1
823 nM | O=C(c1ccc([N+](=O)[O-])cc1)N1CCC(c2cc(-c3ccnc4[nH]ccc34)[nH]n2)CC1
1180 nM | O=C(CC1CC1)N1CCC(c2cc(-c3ccnc4[nH]ccc34)[nH]n2)CC1
805 nM | COc1cccc(C(=O)N2CCC(c3cc(-c4ccnc5[nH]ccc45)[nH]n3)CC2)c1
261 nM | N#CCN1CCC(c2cc(-c3ccnc4[nH]ccc34)[nH]n2)CC1
1490 nM | COc1cc(C(=O)N2CCC(c3cc(-c4ccnc5[nH]ccc45)[nH]n3)CC2)cc(OC)c1OC
197 nM | c1ccc(CN2CCC(c3cc(-c4ccnc5[nH]ccc45)[nH]n3)CC2)cc1

Test system: not listed separately
Test: Induction of apoptosis in H2O2-induced human HTM cells at 1 uM pretreated with compound for 1 hr followed by H2O2 induction and measured after 2 hrs by Annexin V AF647/PI staining based flow cytometry analysis (reference value: 13.47%)
Assay type: functional
Conditions: time 3 hrs

Structure (SMILES) | Activity
C[C@H]1CNCCCN1S(=O)(=O)c1cccc2cncc(F)c12 | 39.46%

Test system: HTM
Test: Induction of morphological changes in human HTM cells at 3 uM incubated for 10 hrs by light microscopic analysis
Assay type: functional, cell-based
Conditions: not given

Structure (SMILES) | Activity
C[C@H]1CNCCCN1S(=O)(=O)c1cccc2cncc(F)c12 | Active

Test system: HTM
Test: Induction of F-actin depolymerization in human HTM cells at 5 uM incubated for 4 hrs by rhodamine-phalloidin staining based analysis
Assay type: cell-based
Conditions: not given

Structure (SMILES) | Activity
C[C@H]1CNCCCN1S(=O)(=O)c1cccc2cncc(F)c12 | Active

Target: MAP kinase-interacting serine/threonine-protein kinase 2 (Homo sapiens) (UniProt Q9HBH9)
Test: Inhibition of MNK2 (unknown origin) at 5 uM preincubated for 10 mins followed by substrate addition and measured after 60 mins by ADP-glo kinase assay relative to control
Conditions: time 70.0 min

Sequence of MAP kinase-interacting serine/threonine-protein kinase 2 (Homo sapiens) (Q9HBH9 whole entry, looked up): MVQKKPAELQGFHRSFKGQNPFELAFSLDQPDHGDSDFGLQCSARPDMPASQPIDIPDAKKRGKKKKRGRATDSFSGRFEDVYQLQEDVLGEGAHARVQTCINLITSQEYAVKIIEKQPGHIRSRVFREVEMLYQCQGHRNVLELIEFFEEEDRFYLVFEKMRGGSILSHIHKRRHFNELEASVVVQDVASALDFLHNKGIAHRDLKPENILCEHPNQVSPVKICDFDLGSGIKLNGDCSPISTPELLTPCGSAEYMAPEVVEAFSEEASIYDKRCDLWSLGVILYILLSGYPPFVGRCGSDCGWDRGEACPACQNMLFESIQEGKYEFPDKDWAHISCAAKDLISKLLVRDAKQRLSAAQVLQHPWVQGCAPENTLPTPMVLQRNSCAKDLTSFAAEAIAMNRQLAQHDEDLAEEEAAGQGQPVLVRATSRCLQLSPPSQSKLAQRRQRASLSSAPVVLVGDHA

inhibition | Structure (SMILES)
58% | CC(=O)N1CCC(c2cc(-c3ccnc4[nH]ccc34)[nH]n2)CC1
79.9% | Cc1cccc(CN2CCC(c3cc(-c4ccnc5[nH]ccc45)[nH]n3)CC2)c1
66.1% | COc1ccc(CN2CCC(c3cc(-c4ccnc5[nH]ccc45)[nH]n3)CC2)cc1OC
78.8% | Fc1ccc(CN2CCC(c3cc(-c4ccnc5[nH]ccc45)[nH]n3)CC2)cc1F
73.4% | O=S(=O)(C1CC1)N1CCC(c2cc(-c3ccnc4[nH]ccc34)[nH]n2)CC1
58.4% | O=C(c1ccc(Cl)cc1)N1CCC(c2cc(-c3ccnc4[nH]ccc34)[nH]n2)CC1
73.5% | c1ccc(Oc2cccc(CN3CCC(c4cc(-c5ccnc6[nH]ccc56)[nH]n4)CC3)c2)cc1
53.3% | O=C(c1ccc(F)c(F)c1)N1CCC(c2cc(-c3ccnc4[nH]ccc34)[nH]n2)CC1
82.2% | Cc1ccc(CN2CCC(c3cc(-c4ccnc5[nH]ccc45)[nH]n3)CC2)cc1
22.4% | CCS(=O)(=O)N1CCC(c2cc(-c3ccnc4[nH]ccc34)[nH]n2)CC1
53.4% | COC(=O)c1ccc(C(=O)N2CCC(c3cc(-c4ccnc5[nH]ccc45)[nH]n3)CC2)cc1
4.2% | COc1ccc(CC(=O)N2CCC(c3cc(-c4ccnc5[nH]ccc45)[nH]n3)CC2)cc1
52.1% | O=C(c1cccc(F)c1)N1CCC(c2cc(-c3ccnc4[nH]ccc34)[nH]n2)CC1
63.5% | O=C(c1ccc([N+](=O)[O-])cc1)N1CCC(c2cc(-c3ccnc4[nH]ccc34)[nH]n2)CC1
46.5% | O=C(CC1CC1)N1CCC(c2cc(-c3ccnc4[nH]ccc34)[nH]n2)CC1
34.3% | COc1cccc(C(=O)N2CCC(c3cc(-c4ccnc5[nH]ccc45)[nH]n3)CC2)c1
84.4% | N#CCN1CCC(c2cc(-c3ccnc4[nH]ccc34)[nH]n2)CC1
74.4% | COc1cc(C(=O)N2CCC(c3cc(-c4ccnc5[nH]ccc45)[nH]n3)CC2)cc(OC)c1OC
82.4% | c1ccc(CN2CCC(c3cc(-c4ccnc5[nH]ccc45)[nH]n3)CC2)cc1

Target: MAP kinase-interacting serine/threonine-protein kinase 1 (Homo sapiens, UniProt Q9BUB5)
Test: Inhibition of MNK1 (unknown origin) at 5 uM preincubated for 10 mins followed by substrate addition and measured after 60 mins by ADP-glo kinase assay relative to control
Conditions: time 70.0 min

Sequence of MAP kinase-interacting serine/threonine-protein kinase 1 (Q9BUB5 whole entry, looked up): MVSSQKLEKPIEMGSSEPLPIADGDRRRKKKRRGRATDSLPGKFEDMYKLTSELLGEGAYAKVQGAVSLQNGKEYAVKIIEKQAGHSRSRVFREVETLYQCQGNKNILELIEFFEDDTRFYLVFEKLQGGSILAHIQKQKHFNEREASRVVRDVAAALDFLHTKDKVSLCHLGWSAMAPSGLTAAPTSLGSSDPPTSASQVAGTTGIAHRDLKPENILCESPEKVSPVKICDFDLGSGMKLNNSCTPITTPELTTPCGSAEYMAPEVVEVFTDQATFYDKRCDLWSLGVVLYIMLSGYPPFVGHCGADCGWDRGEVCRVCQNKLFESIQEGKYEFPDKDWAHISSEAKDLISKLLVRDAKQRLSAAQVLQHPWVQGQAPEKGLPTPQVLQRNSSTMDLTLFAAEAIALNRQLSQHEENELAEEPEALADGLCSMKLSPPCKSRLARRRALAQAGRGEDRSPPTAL

inhibition | Structure (SMILES)
41.8% | CC(=O)N1CCC(c2cc(-c3ccnc4[nH]ccc34)[nH]n2)CC1
71.4% | Cc1cccc(CN2CCC(c3cc(-c4ccnc5[nH]ccc45)[nH]n3)CC2)c1
65.2% | COc1ccc(CN2CCC(c3cc(-c4ccnc5[nH]ccc45)[nH]n3)CC2)cc1OC
71.1% | Fc1ccc(CN2CCC(c3cc(-c4ccnc5[nH]ccc45)[nH]n3)CC2)cc1F
63.6% | O=S(=O)(C1CC1)N1CCC(c2cc(-c3ccnc4[nH]ccc34)[nH]n2)CC1
82.2% | O=C(c1ccc(Cl)cc1)N1CCC(c2cc(-c3ccnc4[nH]ccc34)[nH]n2)CC1
68.1% | c1ccc(Oc2cccc(CN3CCC(c4cc(-c5ccnc6[nH]ccc56)[nH]n4)CC3)c2)cc1
67.2% | O=C(c1ccc(F)c(F)c1)N1CCC(c2cc(-c3ccnc4[nH]ccc34)[nH]n2)CC1
76% | Cc1ccc(CN2CCC(c3cc(-c4ccnc5[nH]ccc45)[nH]n3)CC2)cc1
16% | CCS(=O)(=O)N1CCC(c2cc(-c3ccnc4[nH]ccc34)[nH]n2)CC1
77.1% | COC(=O)c1ccc(C(=O)N2CCC(c3cc(-c4ccnc5[nH]ccc45)[nH]n3)CC2)cc1
8.8% | COc1ccc(CC(=O)N2CCC(c3cc(-c4ccnc5[nH]ccc45)[nH]n3)CC2)cc1
66.6% | O=C(c1cccc(F)c1)N1CCC(c2cc(-c3ccnc4[nH]ccc34)[nH]n2)CC1
78.6% | O=C(c1ccc([N+](=O)[O-])cc1)N1CCC(c2cc(-c3ccnc4[nH]ccc34)[nH]n2)CC1
39.3% | O=C(CC1CC1)N1CCC(c2cc(-c3ccnc4[nH]ccc34)[nH]n2)CC1
52.5% | COc1cccc(C(=O)N2CCC(c3cc(-c4ccnc5[nH]ccc45)[nH]n3)CC2)c1
71.4% | N#CCN1CCC(c2cc(-c3ccnc4[nH]ccc34)[nH]n2)CC1
60.8% | COc1cc(C(=O)N2CCC(c3cc(-c4ccnc5[nH]ccc45)[nH]n3)CC2)cc(OC)c1OC
73.2% | c1ccc(CN2CCC(c3cc(-c4ccnc5[nH]ccc45)[nH]n3)CC2)cc1

Test system: HTM
Test: Inhibition of TGF-beta2 induced alpha-SMA expression in human HTM cells at 1 uM pretreated with compound for 2 hrs followed by TGF-beta2 induction and measured after 24 hrs
Assay type: functional, cell-based
Conditions: time 26.0 hrs

Structure (SMILES) | inhibition
C[C@H]1CNCCCN1S(=O)(=O)c1cccc2cncc(F)c12 | Active

Test system: HTM
Test: Inhibition of TGF-beta2 induced collagen 1A expression in human HTM cells at 1 uM pretreated with compound for 2 hrs followed by TGF-beta2 induction and measured after 24 hrs
Assay type: functional, cell-based
Conditions: time 26.0 hrs

Structure (SMILES) | inhibition
C[C@H]1CNCCCN1S(=O)(=O)c1cccc2cncc(F)c12 | Active

Test system: HTM
Test: Inhibition of paxillin expression in human HTM cells at 5 uM
Assay type: functional, cell-based
Conditions: not given

Structure (SMILES) | inhibition
C[C@H]1CNCCCN1S(=O)(=O)c1cccc2cncc(F)c12 | inactive

Test system: Mitochondrial membrane
Test: Induction of mitochondrial membrane potential in human HTM cells at 1 uM incubated for 24 hrs by JC-1 staining based flow cytometry analysis
Conditions: not given

Activity | Structure (SMILES)
inactive | C[C@H]1CNCCCN1S(=O)(=O)c1cccc2cncc(F)c12

Test system: HTM
Test: Inhibition of H2O2-induced ROS production in human HTM cells assessed as decrease in green fluorescence at 1 uM preincubated for 1 hrs followed by H2O2 induction for 2 hrs and measured after 30 mins by DCFH-DA based fluorescence microscopic analysis
Assay type: functional, cell-based
Conditions: time 3.5 hrs

Structure (SMILES) | inhibition
C[C@H]1CNCCCN1S(=O)(=O)c1cccc2cncc(F)c12 | Active
